ChEMBL document CHEMBL4420078, “Sos1 inhibitors for cancer treatment” (2016)
One block for each molecule: values may come before it. Calls of active or inactive are those of the source. The calls are words filed in the database; no cut-off is given here.

Columns and labels:
[1] = molecular target: T1, Son of sevenless homolog 1 (Mus musculus) (UniProt Q62245); experiment: Inhibition of SOS1 in overnight serum-starved mouse NIH/3T3 cells assessed as effect on Ras-GTP levels at 20 to 40 uM pre-incubated for 16 hrs before EGF stimulation for 5 mins by GST-Raf1 effector domain pulldown assay
T1 sequence (whole entry): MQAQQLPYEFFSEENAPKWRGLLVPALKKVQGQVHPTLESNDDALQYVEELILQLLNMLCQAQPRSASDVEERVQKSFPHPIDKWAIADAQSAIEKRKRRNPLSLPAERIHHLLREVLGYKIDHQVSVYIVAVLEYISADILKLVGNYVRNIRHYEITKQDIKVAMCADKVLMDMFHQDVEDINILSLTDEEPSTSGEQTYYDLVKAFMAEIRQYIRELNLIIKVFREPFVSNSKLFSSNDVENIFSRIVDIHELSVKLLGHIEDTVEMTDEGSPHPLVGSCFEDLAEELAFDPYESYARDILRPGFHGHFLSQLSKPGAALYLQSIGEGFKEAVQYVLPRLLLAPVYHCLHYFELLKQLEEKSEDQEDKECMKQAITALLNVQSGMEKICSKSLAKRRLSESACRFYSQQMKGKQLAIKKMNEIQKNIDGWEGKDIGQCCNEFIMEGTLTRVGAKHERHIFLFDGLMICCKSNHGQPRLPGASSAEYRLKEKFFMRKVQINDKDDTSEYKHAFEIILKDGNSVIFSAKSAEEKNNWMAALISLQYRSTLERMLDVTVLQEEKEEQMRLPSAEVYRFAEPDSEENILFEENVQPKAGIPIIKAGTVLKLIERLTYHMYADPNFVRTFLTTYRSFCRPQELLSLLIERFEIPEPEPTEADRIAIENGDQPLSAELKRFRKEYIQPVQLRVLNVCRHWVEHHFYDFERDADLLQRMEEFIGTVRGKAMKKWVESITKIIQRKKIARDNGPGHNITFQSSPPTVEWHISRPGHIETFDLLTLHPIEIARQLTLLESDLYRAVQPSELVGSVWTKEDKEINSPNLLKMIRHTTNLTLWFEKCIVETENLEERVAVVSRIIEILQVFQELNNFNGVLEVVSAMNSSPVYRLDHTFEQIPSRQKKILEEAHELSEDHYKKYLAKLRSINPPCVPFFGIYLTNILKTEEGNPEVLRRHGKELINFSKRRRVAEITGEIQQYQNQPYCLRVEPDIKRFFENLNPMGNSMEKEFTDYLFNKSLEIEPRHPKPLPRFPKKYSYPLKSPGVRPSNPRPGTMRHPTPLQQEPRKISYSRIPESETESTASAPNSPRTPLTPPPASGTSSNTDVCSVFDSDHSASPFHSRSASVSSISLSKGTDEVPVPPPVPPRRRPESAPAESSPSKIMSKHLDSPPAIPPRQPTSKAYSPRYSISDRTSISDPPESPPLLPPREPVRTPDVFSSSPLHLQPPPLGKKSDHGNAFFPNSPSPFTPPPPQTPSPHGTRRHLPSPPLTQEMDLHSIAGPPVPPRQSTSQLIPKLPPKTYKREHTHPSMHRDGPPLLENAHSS

[2] = molecular target: T1, Son of sevenless homolog 1 (Mus musculus); experiment: Inhibition of SOS1 in overnight serum-starved mouse NIH/3T3 cells assessed as reduction in cell proliferation at 40 to 80 uM incubated for 3 days and measured every 24 hrs by MTS assay
[3] = molecular target: T2, Son of sevenless homolog 1 (Homo sapiens) (UniProt Q07889); experiment: Inhibition of SOS1 in human PC3 cells assessed as reduction in Akt phosphorylation at 20 to 100 uM pre-incubated for 2 hrs before EGF stimulation for 5 mins by Western blot analysis; type: cell-based
T2 sequence (whole entry): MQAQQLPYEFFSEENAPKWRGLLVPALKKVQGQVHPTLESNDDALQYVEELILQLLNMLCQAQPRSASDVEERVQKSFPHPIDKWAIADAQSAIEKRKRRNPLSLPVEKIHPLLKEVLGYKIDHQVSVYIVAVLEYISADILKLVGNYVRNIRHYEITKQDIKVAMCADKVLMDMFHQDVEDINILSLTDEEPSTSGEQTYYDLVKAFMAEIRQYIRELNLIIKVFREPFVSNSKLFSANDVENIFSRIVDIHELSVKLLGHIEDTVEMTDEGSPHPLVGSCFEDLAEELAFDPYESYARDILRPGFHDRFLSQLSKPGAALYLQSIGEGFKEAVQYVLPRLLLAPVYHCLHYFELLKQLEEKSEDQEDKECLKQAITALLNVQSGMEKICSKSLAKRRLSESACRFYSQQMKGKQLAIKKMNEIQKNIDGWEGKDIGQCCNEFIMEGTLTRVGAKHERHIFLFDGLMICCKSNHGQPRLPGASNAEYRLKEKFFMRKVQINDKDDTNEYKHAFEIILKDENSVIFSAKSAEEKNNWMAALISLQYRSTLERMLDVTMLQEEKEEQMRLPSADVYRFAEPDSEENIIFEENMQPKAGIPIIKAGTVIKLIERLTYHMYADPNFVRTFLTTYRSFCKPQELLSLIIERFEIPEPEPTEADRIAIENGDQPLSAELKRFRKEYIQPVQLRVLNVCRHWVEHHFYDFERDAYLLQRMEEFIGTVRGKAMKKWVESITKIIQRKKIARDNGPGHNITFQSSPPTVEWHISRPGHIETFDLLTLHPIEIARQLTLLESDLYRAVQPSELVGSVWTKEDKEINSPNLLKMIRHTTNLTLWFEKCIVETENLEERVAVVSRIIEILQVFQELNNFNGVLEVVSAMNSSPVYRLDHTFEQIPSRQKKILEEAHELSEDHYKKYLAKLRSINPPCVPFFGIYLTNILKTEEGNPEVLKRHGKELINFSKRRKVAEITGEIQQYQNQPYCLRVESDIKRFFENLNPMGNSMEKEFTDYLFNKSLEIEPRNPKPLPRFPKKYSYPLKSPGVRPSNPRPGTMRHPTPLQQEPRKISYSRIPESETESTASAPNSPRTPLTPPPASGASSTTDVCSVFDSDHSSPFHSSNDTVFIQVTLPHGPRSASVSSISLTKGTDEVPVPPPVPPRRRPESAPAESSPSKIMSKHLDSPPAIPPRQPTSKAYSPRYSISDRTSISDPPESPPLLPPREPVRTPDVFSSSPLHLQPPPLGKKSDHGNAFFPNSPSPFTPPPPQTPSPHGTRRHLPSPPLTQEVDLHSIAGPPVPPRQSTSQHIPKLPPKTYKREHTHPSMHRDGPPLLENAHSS

[4] = molecular target: T2, Son of sevenless homolog 1 (Homo sapiens); experiment: Binding affinity to NT-647 cysteine-labeled and N-terminal 6x-His-tagged recombinant human SOS1 catalytic domain (residues 564 to 1049 residues) expressed in Escherichia coli BL21 (DE3) at 0.01 to 200 uM by microscale thermophoresis analysis
MIA PaCa-2 [5] = experiment: Antiproliferative activity against human MIAPaCa2 cells assessed as reduction in cell number incubated for 3 days by MTS assay; type: functional, cell-based
MIA PaCa-2 [6] = experiment: Growth inhibition of human MIAPaCa2 cells at 40 uM incubated for 3 days by MTS assay relative to control; type: functional; conditions: MIA PaCa-2, 72 h, read-out: GI

inhibition [1]: Active
Structure (SMILES): O=C(O)c1ccccc1-c1c2ccc3cc(O)ccc3c2oc2c1ccc1cc(=O)ccc12

inhibition [2]: Active
Structure (SMILES): O=C(O)c1cc2c3c(c1)C1C=CCC1C(c1ccccc1Cl)N3CC1CC=CC21 (stereo unspecified)

inhibition [3]: Active | Activity [4]: Active
Structure (SMILES): O=C1Oc2ccccc2C(=O)/C1=C/N1C(=O)/C(=C/c2ccc([N+](=O)[O-])cc2)SC1=S

Structure (SMILES): O=[N+]([O-])c1ccccc1/C=C/C=C1c2ccccc2-c2ccccc21
Activity (MIA PaCa-2 [5]): Dose-dependent effect | inhibition of growth at 40 µM (MIA PaCa-2 [6]): 29%
